Laboratory results from publication PMC9103439, “Cyclo(His-Pro) Exerts Protective Carbonyl Quenching Effects through Its Open Histidine Containing Dipeptides” (Nutrients, 2022).
Structures can show the parent of a compound that is named as a salt.

What was measured:
[1] = Quenching activity towards HNE (residual HNE by HPLC-UV); settings: for HNE Quenching (%) 1 h: percentage of quenched HNE at 1 h; for HNE Quenching (%) 2 h: percentage of quenched HNE at 2 h; for HNE Quenching (%) 3 h: percentage of quenched HNE at 3 h
Procedure: The reactivity towards HNE was tested for each peptide separately, by monitoring within 3 h from the incubation the residual HNE via HPLC-UV, as previously reported. Minor modifications of the method were implemented. A Kinetex C18 column (25 mm × 2.10 mm, particle size 2.6 µm, pore size 100 Å, Phenomenex, Castel Maggiore, Italy) was used instead and the elution of residual HNE was provided at 40 °C by 300 µL/min flow rate of aqueous ammonium acetate (10 mM) containing 20% acetonitrile. For active compounds, the formation of HNE adduct was confirmed by mass spectrometry. Samples were diluted in ACN/H2O/formic acid, 50/50/0.1, v/v/v solution down to a suitable concentration and pumped at 5 µL/min directly into ESI capillary (Finnigan Ion Max, Thermo Fisher Scientific, Rodano, Italy) and 3.5 kV voltage, 270 °C capillary temperature, 35 V capillary voltage and 50 V tube lens were applied to ensure sample nebulization. Spectra were acquired in positive ion mode for 5 × 10^5 ions per scan, by using a LTQ-Orbitrap XL-ETD analyzer (Thermo Fisher Scientific, Rodano, Italy) operating in a 150–700 m/z scan range at a resolution of (FWHM at m/z 400).

[2] = Serum stability (LC-MS, MRM); format: in vitro ADME, human; settings: 37 °C; for half-life at 5 µM: human, read-out: Serum Stability t1/2
Procedure: (§1) Serum stability was measured as previously described. Briefly, analytes were spiked separately in pre-heated (37 °C) serum aliquots down to a final concentration of 5 µM. The residual concentration of analyte was measured at the beginning and after 5, 15, 30, 60 and 120 min by means of LC-MS. Prior to analyses, hydrolysis was blocked at the desired time points diluting with 9 volumes of acetonitrile at 4 °C to provide protein precipitation. The analyte residual concentration was then measured in the supernatants obtained upon centrifugation. The same method was also used to evaluate the inhibition effect of CHP by incubating serum samples with equimolar amounts of carnosine and CHP.

[3] = target: T1, human serum carnosinase (hCN1) (Homo sapiens, UniProt Q96KN2); experiment: Inhibition effect of CHP on serum carnosinase (carnosine hydrolysis in serum); format: biochemical; settings: serum incubated with equimolar carnosine and CHP; decrease not statistically significant
T1 construct: from tissue; host or cells: serum
T1 sequence (Q96KN2 26-507): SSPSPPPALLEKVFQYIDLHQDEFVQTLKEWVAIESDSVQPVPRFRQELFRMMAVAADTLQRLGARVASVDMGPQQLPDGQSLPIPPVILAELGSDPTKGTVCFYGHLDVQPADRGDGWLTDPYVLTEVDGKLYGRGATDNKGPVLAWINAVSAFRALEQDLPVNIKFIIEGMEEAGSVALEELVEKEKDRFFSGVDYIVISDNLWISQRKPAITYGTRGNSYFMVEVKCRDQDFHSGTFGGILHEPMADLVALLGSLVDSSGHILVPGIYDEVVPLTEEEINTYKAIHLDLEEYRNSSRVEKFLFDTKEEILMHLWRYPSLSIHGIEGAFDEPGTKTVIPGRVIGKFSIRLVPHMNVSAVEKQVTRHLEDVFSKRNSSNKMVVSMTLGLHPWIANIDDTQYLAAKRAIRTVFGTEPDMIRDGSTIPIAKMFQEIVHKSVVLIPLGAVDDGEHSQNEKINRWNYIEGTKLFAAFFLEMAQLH
Procedure: as §1

[4] = design: method as in PMID 1424308; settings: cited from earlier work

Row | Compound | Serum Stability t1/2 (min) ([2]; 5 µM) | retained carnosine hydrolytic activity [3] | half-life at 5 µM [2] | HNE Quenching (%) 1 h [1] | HNE Quenching (%) 2 h [1] | HNE Quenching (%) 3 h [1] | half-life in vivo [4]
1 | O=C1NC(Cc2cnc[nH]2)C(=O)N2CCCC12 (centres unmarked) [CHP, Cyclo(His-Pro)] | Stable | 85 ± 5% |  | 2.42 ± 0.71% | 5.46 ± 0.78% | 8.09 ± 0.77% | 
2 | NCCC(=O)N[C@@H](Cc1cnc[nH]1)C(=O)O [L-carnosine, reference compound] |  |  | 1.17 min | 17.04 ± 6.17% | 29.05 ± 4.33% | 40.40 ±3.73% | 
3 | O=C(O)C(Cc1c[nH]cn1)NC(=O)C1CCCN1 [ProHis, L-Pro-L-His-OH dihydrochloride] |  |  | 33.4 min | 20.39 ± 1.14% | 36.94 ± 0.80% | 49.87 ± 1.06% | 

The next lines start with results.

Row | Serum Stability t1/2 (min) ([2]; 5 µM) | retained carnosine hydrolytic activity [3] | half-life at 5 µM [2] | Compound | HNE Quenching (%) 1 h [1] | HNE Quenching (%) 2 h [1] | HNE Quenching (%) 3 h [1] | half-life in vivo [4]
4 |  |  | 3.08 min | NC(Cc1cnc[nH]1)C(=O)N1CCCC1C(=O)O (centres unmarked) [HisPro, His-Pro] | −0.33 ± 0.45% | −0.26 ± 0.53% | 3.54 ± 1.66% | 
5 |  |  | 128 min | NC(=O)C(Cc1c[nH]cn1)NC(=O)C1CCCN1 [ProHis-NH2, L-Pro-L-His-NH2] | 17.08 ± 1.11% | 27.66 ± 0.58% | 36.29 ± 1.08% | 
6 |  |  | 24.4 min | NC(=O)[C@@H]1CCCN1C(=O)[C@H](Cc1cnc[nH]1)NC(=O)[C@@H]1CCC(=O)N1 [TRH, thyrotropin-releasing hormone, reference compound] | 2.31 ± 6.72% | 4.16 ± 6.16% | 6.17 ± 6.41% | 6.5 min
